Test results reported in patent US11161856B2 (H. Lundbeck A/S, priority 2017, dated 2021).

Key:
Format in all cases: biochemical
MAGL = molecular target: T1, MAGL (Homo sapiens, UniProt Q99685); experiment: In vitro competitive activity-based protein profiling (FP-Rh or HT-01 probe, gel-based); details: concentration not given (μM); for % Inh MGLL PC3 (Human, μM): PC3 cell proteome
T1 construct: Proteomes (human prefrontal cortex or cell membrane fractions); from tissue
T1 sequence (Q99685 1-303): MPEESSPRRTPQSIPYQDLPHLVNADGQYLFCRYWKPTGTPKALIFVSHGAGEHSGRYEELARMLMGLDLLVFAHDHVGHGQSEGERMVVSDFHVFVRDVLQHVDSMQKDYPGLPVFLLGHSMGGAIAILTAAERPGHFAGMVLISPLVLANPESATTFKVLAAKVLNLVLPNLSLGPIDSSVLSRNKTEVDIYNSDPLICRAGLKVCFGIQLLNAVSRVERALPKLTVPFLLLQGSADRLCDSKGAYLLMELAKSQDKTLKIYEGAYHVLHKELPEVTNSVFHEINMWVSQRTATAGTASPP
Summary of the method: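 Human prefrontal cortex or cell membrane proteomes (1.0 mg/mL total protein) were preincubated with varying inhibitor concentrations for 30 min at 37° C. FP-Rh or HT-01 probe (50 μM DMSO stock) was then added for 30 min at room temperature, and samples were quenched in SDS loading buffer and resolved by SDS-PAGE.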

ABHD6 = molecular target: T2, ABHD6 (Mus musculus, UniProt Q8R2Y0); experiment: In vitro competitive activity-based protein profiling, mouse brain proteome (ABHD6); details: mouse brain proteome; concentration not given (μM)
T2 construct: Brain; from tissue; host or cells: mouse brain proteome
T2 sequence (Q8R2Y0 1-336): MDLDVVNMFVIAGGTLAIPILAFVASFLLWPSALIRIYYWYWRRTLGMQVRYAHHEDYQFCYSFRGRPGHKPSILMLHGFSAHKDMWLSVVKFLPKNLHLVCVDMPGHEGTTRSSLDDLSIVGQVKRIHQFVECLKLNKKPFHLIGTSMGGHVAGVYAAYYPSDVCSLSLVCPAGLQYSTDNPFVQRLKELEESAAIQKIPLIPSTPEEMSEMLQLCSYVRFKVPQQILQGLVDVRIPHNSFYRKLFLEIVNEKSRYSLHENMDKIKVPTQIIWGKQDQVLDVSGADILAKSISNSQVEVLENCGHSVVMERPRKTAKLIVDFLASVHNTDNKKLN
Protocol: [The source words this procedure for another target and reports this target under the same test.] In Vitro Competitive Activity-Based Protein Profiling.
Proteomes (human prefrontal cortex or cell membrane fractions) (50 μL, 1.0 mg/mL total protein concentration) were preincubated with varying concentrations of inhibitors at 37° C. After 30 min, FP-Rh or HT-01 (1.0 μL, 50 μM in DMSO) was added and the mixture was incubated for another 30 min at room temperature. Reactions were quenched with SDS loading buffer (15 μL-4×) and run on SDS-PAGE.

MGLL = molecular target: T3, MGLL (Mus musculus, UniProt O35678); experiment: In vitro competitive activity-based protein profiling, mouse brain proteome (MGLL); details: concentration not given (μM)
T3 construct: Brain; from tissue; host or cells: mouse brain proteome
T3 sequence (O35678 1-303): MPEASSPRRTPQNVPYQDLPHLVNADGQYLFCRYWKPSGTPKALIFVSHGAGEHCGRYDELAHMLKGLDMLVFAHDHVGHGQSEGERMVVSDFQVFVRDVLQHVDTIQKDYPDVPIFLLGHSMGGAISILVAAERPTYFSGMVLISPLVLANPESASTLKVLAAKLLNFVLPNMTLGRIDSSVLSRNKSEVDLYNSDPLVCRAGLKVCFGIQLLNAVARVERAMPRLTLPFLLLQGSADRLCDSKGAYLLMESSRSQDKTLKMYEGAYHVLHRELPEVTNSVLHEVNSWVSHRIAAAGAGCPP

Compound | % Inh MGLL PC3 (Human, μM) (MAGL) | % Inh ABHD6 Brain (Mouse, μM) (ABHD6) | % Inh MGLL Brain (Mouse, μM) (MGLL) | % Inh MGLL PFC (Human, μM) (MAGL; prefrontal cortex (PFC) proteome)
O=C(OC(C(F)(F)F)C(F)(F)F)N1CCC2(CCCN2Cc2cc(Cl)cc(C3(C(=O)O)CCCC3)c2)CC1 [Example 134, l-{3-Chloro-5-[(8-{[(1,1,1,3,3,3-hexafluoropropan-2-yl)oxy]carbonyl}-1,8-diazaspiro[4.5]decan-1-yl)methyl]phenyl}cyclopentane-1-carboxylic acid] | ### (### is ≥75%) | # (# is ≤25%) | ### (### is ≥75%) | 
CN(Cc1ccc(Cl)cc1N1CCC(C(=O)O)CC1)C1(C)CCN(C(=O)OC(C(F)(F)F)C(F)(F)F)CC1 [Example 135, l-(5-Chloro-2-(((1-(((1,1,1,3,3,3-hexafluoropropan-2-yl)oxy)carbonyl)-4-methylpiperidin-4-yl)(methyl)amino)methyl)phenyl)piperidine-4-carboxylic acid] | ### (### is ≥75%) | ### (### is ≥75%) | ### (### is ≥75%) | 
CN(Cc1ccc(C(F)(F)F)cc1OCC(=O)O)C1(C)CCN(C(=O)OC(C(F)(F)F)C(F)(F)F)CC1 [Example 136, 2-(2-(((1-(((1,1,1,3,3,3-Hexafluoropropan-2-yl)oxy)carbonyl)-4-methylpiperidin-4-yl)(methyl)amino)methyl)-5-(trifluoromethyl)phenoxy)acetic acid] | ### (### is ≥75%) | # (# is ≤25%) | ### (### is ≥75%) | 
CN(Cc1ccc(C(F)(F)F)cc1CN1CCC(C(=O)O)CC1)C1(C)CCN(C(=O)OC(C(F)(F)F)C(F)(F)F)CC1 [Example 137, l-(2-(((1-(((1,1,1,3,3,3-Hexafluoropropan-2-yl)oxy)carbonyl)-4-methylpiperidin-4-yl)(methyl)amino)methyl)-5-(trifluoromethyl)benzyl)piperidine-4-carboxylic acid] | ### (### is ≥75%) | # (# is ≤25%) | ### (### is ≥75%) | 
CN(Cc1cc(C(F)(F)F)cc(C2(C(=O)O)CCCC2)c1)C1(C)CCN(C(=O)OC(C(F)(F)F)C(F)(F)F)CC1 [Example 138, l-(3-{[(1-{[(1,1,1,3,3,3-Hexafluoropropan-2-yl)oxy]carbonyl}-4-methylpiperidin-4-yl)(methyl)ainino]methyl}-5-(trifluoromethyl)phenyl)cyclop entane-1-carboxylic acid] | ### (### is ≥75%) | ### (### is ≥75%) | ### (### is ≥75%) | 
CN(Cc1cc(N2CCOC(C)(C(=O)O)C2)cc(C(F)(F)F)c1)C1(C)CCN(C(=O)OC(C(F)(F)F)C(F)(F)F)CC1 (stereo not drawn) [Example 139, 4-(3-(((1-(((1,1,1,3,3,3-Hexafluoropropan-2-yl)oxy)carbonyl)-4-methylpiperidin-4-yl)(methyl)amino)methyl)-5-(trifluoromethyl)phenyl)-2-methylmorpholine-2-carboxylic acid] |  | ## (## is between 25 and 75%) | ### (### is ≥75%) | ### (### is ≥75%)
CC(C)(C#Cc1cc(CN2CCCC23CCN(C(=O)OC(C(F)(F)F)C(F)(F)F)CC3)cc(C(F)(F)F)c1)C(=O)O [Example 140, 4-{3-[(8-{[(1,1,1,3,3,3-Hexafluoropropan-2-yl)oxy]carbonyl}-1,8-diazaspiro[4.5]decan-1-yl)methyl]-5-(trifluoromethyl)phenyl}-2,2-dimethylbut-3-ynoic acid] | ### (### is ≥75%) | ### (### is ≥75%) | ### (### is ≥75%) | 
CN(Cc1ccccc1C1(C(=O)O)CCCC1)C1(C)CCN(C(=O)OC(C(F)(F)F)C(F)(F)F)CC1 [Example 141, 1-(2-{[(1-{[(1,1,1,3,3,3-Hexafluoropropan-2-yl)oxy]carbonyl}-4-methylpiperidin-4-yl)(methyl)amino]methyl}phenyl)cyclopentane-1-carboxylic acid] | ### (### is ≥75%) | # (# is ≤25%) | ### (### is ≥75%) | 
CN(Cc1ccc(Cl)cc1C1(C(=O)O)CCCC1)C1(C)CCN(C(=O)OC(C(F)(F)F)C(F)(F)F)CC1 [Example 142, 1-(5-Chloro-2-{[(1-{[(1,1,1,3,3,3-hexafluoropropan-2-yl)oxy]carbonyl}-4-methylpiperidin-4-yl)(methyl)amino]methyl}phenyl)cyclopentane-1-carboxylic acid] | ### (### is ≥75%) | # (# is ≤25%) | ### (### is ≥75%) | 
CN(Cc1ccc(F)cc1C1(C(=O)O)CCCC1)C1(C)CCN(C(=O)OC(C(F)(F)F)C(F)(F)F)CC1 [Example 143, 1-(5-Fluoro-2-{[(1-{[(1,1,1,3,3,3-hexafluoropropan-2-yl)oxy]carbonyl}-4-methylpiperidin-4-yl)(methyl)amino]methyl}phenyl)cyclopentane-1-carboxylic acid] | ### (### is ≥75%) | # (# is ≤25%) | ### (### is ≥75%) | 
CN(Cc1cccc(F)c1C1(C(=O)O)CCCC1)C1(C)CCN(C(=O)OC(C(F)(F)F)C(F)(F)F)CC1 [Example 144, l-(2-Fluoro-6-{[(1-{[(1.1,1,3,3,3-hexafluoropropan-2-yl)oxy]carbonyl}-4-methylpiperidin-4-yl)(methyl)ainino]methyl}phenyl)cyclopentane-1-carboxylic acid] | ### (### is ≥75%) | # (# is ≤25%) | ### (### is ≥75%) | 
CC(C)(C#Cc1ccccc1CN1CCCC12CCN(C(=O)OC(C(F)(F)F)C(F)(F)F)CC2)C(=O)O [Example 145, 4-{2-[(8-{[(1,1,1,3,3,3-Hexafluoropropan-2-yl)oxy]carbonyl}-1,8-diazaspiro[4.5]decan-1-yl)methyl]phenyl}-2,2-dimethylbut-3-ynoic acid] | ### (### is ≥75%) | # (# is ≤25%) | ### (### is ≥75%) | 
CC1(OCc2ccc(Cl)cc2C2(C(=O)O)CCCC2)CCN(C(=O)OC(C(F)(F)F)C(F)(F)F)CC1 [Example 146, 1-(5-Chloro-2-{[(1-{[(1,1,1,3,3,3-hexafluoropropan-2-yl)oxy]carbonyl}-4-methylpiperidin-4-yl)oxy]methyl}phenyl) cyclopentane-1-carboxylic acid] | ### (### is ≥75%) | ## (## is between 25 and 75%) | ### (### is ≥75%) | 
CC(C)(C#Cc1c(F)cccc1CN1CCCC12CCN(C(=O)OC(C(F)(F)F)C(F)(F)F)CC2)C(=O)O [Example 147, 4-{2-Fluoro-6-[(8-{[(1,1,1,3,3,3-hexafluoropropan-2-yl)oxy]carbonyl}-1,8-diazaspiro[4.5]decan-1-yl)methyl]phenyl}-2,2-dimethylbut-3-ynoic acid] | ### (### is ≥75%) | # (# is ≤25%) | ### (### is ≥75%) | 
